Data set [1] relates to gastric cancer cell line SGC-7901. Nature of the data set: in vitro cell proliferation inhibition (CCK-8). It is filed as cell-based.
From the text: (§1) Osteosarcoma cell line 143B, HOS, and U2, liver cancer cell line HepG2, breast cancer cell line MDA-MB-231 and T47D, gastric cancer cell line AGS, BGC-823, and SGC-7901, cervical cancer cells Hela, lung cancer cells A549, intestinal cancer cells Caco2, mouse glioma cells BV-2, human prostate cancer cells PC3, human thyroid cancer cell line BCPAP, human normal liver cell line L02, human normal gastric cell line GES, human umbilical vein epithelial cells HUVEC, and human embryonic lung fibroblasts WI-38 were cultured in a DMEM medium containing 10% fetal bovine serum and 1×HEPES in a humid incubator (37° C., 5% CO2). The cells were passaged with trypsin-EDTA in logarithmic phase. Certain density of cells (AGS, T47D, Caco2, BCPAP, GES, HUVEC 1×10^5 cells per well; HepG2, MDA-MB-231, BGC-823, A549, PC3, L02 8×10^4 cells per well; 143B, HOS, U2, SGC-7901, Hela, BV-2, 5×10^4 cells per well; WI-38, 3×10^5 cells per well) were inoculated in a 96-well plate, and cultured for 24 h before treatment. After replacing a fresh medium, 12.5 mg/L to 400 mg/L of quercetin, quercetin 3-methyl ether, and quercetin 3,3′-dimethyl ether dissolved with DMSO were added into the medium (a final volume ratio was 0.1%, and the DMSO was used as a […]). After incubation for 48 h, a complete medium was replaced with a serum-free medium containing 10% CCK-8 reagent. The absorbance at 450 nm and 620 nm was measured separately after the cells were incubated for 1 h. Each experiment was repeated three times independently.
as §1, with “400 mg/L,” for “400 mg/L”, “of” for “of quercetin, quercetin 3-methyl ether, and”, “DMSO was” for “DMSO were”, “into a” for “into the”

The test system of the next data set is mouse glioma cells BV-2. Nature of the data set: in vitro cell proliferation inhibition (CCK-8). The data set is classed as cell-based. The following applies: BV2, 48 h incubation.
From the text: as §1
as §1, with “400 mg/L,” for “400 mg/L”, “of” for “of quercetin, quercetin 3-methyl ether, and”, “DMSO was” for “DMSO were”, “into a” for “into the”

The test system of data set [2] is intestinal cancer cells Caco2. Briefly: in vitro cell proliferation inhibition (CCK-8). It is filed as cell-based.
From the text: as §1
as §1, with “400 mg/L,” for “400 mg/L”, “of” for “of quercetin, quercetin 3-methyl ether, and”, “DMSO was” for “DMSO were”, “into a” for “into the”

In data set [3] the test system is gastric cancer cell line BGC-823. Nature of the data set: in vitro cell proliferation inhibition (CCK-8). The data set is classed as cell-based.
From the text: as §1
as §1, with “400 mg/L,” for “400 mg/L”, “of” for “of quercetin, quercetin 3-methyl ether, and”, “DMSO was” for “DMSO were”, “into a” for “into the”

For data set [4], the system named is human thyroid cancer cell line BCPAP. Nature of the data set: in vitro cell proliferation inhibition (CCK-8). It is filed as cell-based. The conditions noted are these: 48 h incubation.
From the text: as §1
as §1, with “400 mg/L,” for “400 mg/L”, “of” for “of quercetin, quercetin 3-methyl ether, and”, “DMSO was” for “DMSO were”, “into a” for “into the”

The subject of data set [5] is gastric cancer cell line AGS. Briefly: in vitro cell proliferation inhibition (CCK-8). The data set is classed as cell-based. The conditions noted are these: 48 h incubation.
From the text: as §1
as §1, with “400 mg/L,” for “400 mg/L”, “of” for “of quercetin, quercetin 3-methyl ether, and”, “DMSO was” for “DMSO were”, “into a” for “into the”

For data set [6], the system named is Osteosarcoma cell line HOS. Briefly: in vitro cell proliferation inhibition (CCK-8). The data set is classed as cell-based. The following applies: 48 h incubation.
From the text: as §1
as §1, with “400 mg/L,” for “400 mg/L”, “of” for “of quercetin, quercetin 3-methyl ether, and”, “DMSO was” for “DMSO were”, “into a” for “into the”

For data set [7], the system named is breast cancer cell line T47D. Briefly: in vitro cell proliferation inhibition (CCK-8). The data set is classed as cell-based. The following applies: 48 h incubation.
From the text: as §1
as §1, with “400 mg/L,” for “400 mg/L”, “of” for “of quercetin, quercetin 3-methyl ether, and”, “DMSO was” for “DMSO were”, “into a” for “into the”

The subject of data set [8] is human prostate cancer cells PC3. Nature of the data set: in vitro cell proliferation inhibition (CCK-8). The following applies: 48 h incubation. It is filed as cell-based.
From the text: as §1
as §1, with “400 mg/L,” for “400 mg/L”, “of” for “of quercetin, quercetin 3-methyl ether, and”, “DMSO was” for “DMSO were”, “into a” for “into the”

Data set [9] relates to Osteosarcoma cell line 143B. Nature of the data set: in vitro cell proliferation inhibition (CCK-8). The conditions noted are these: 48 h incubation. The data set is classed as cell-based.
From the text: as §1
as §1, with “400 mg/L,” for “400 mg/L”, “of” for “of quercetin, quercetin 3-methyl ether, and”, “DMSO was” for “DMSO were”, “into a” for “into the”

In data set [10] the test system is liver cancer cell line HepG2. Briefly: in vitro cell proliferation inhibition (CCK-8). It is filed as cell-based. The conditions noted are these: 48 h incubation.
From the text: as §1
as §1, with “400 mg/L,” for “400 mg/L”, “of” for “of quercetin, quercetin 3-methyl ether, and”, “DMSO was” for “DMSO were”, “into a” for “into the”

In data set [11] the test system is breast cancer cell line MDA-MB-231. Briefly: in vitro cell proliferation inhibition (CCK-8). The data set is classed as cell-based. The conditions noted are these: 48 h incubation.
From the text: as §1
as §1, with “400 mg/L,” for “400 mg/L”, “of” for “of quercetin, quercetin 3-methyl ether, and”, “DMSO was” for “DMSO were”, “into a” for “into the”

The subject of data set [12] is Osteosarcoma cell line U2. Briefly: in vitro cell proliferation inhibition (CCK-8). The data set is classed as cell-based. The conditions noted are these: 48 h incubation.
From the text: as §1
as §1, with “400 mg/L,” for “400 mg/L”, “of” for “of quercetin, quercetin 3-methyl ether, and”, “DMSO was” for “DMSO were”, “into a” for “into the”

For data set [13], the system named is cervical cancer cells Hela. Briefly: in vitro cell proliferation inhibition (CCK-8). The following applies: 48 h incubation. The data set is classed as cell-based.
From the text: as §1
as §1, with “400 mg/L,” for “400 mg/L”, “of” for “of quercetin, quercetin 3-methyl ether, and”, “DMSO was” for “DMSO were”, “into a” for “into the”

In another data set the test system is lung cancer cells A549. Nature of the data set: in vitro cell proliferation inhibition (CCK-8). It is filed as cell-based. The conditions noted are these: 48 h incubation.
From the text: as §1
as §1, with “400 mg/L,” for “400 mg/L”, “of” for “of quercetin, quercetin 3-methyl ether, and”, “DMSO was” for “DMSO were”, “into a” for “into the”

Data set [14] has as its system HepG2 transplanted tumors. Nature of the data set: proliferation of HepG2 transplanted tumors in nude mice in vivo. More on the design: species or system BALB/c nude mice. The following applies: 10 mg/kg bw·d intraperitoneal; day 12. Here is the method:
BALB/c nude mice (5 to 6 weeks old), weighing 19 g to 22 g, were purchased from Shanghai Experimental Animal Center, Chinese Academy of Sciences. HepG2 cells were collected in a serum-free DMEM medium to make a cell suspension, and then the cell suspension was injected into an underarm area of each mouse, approximately 2.0×10^6 cells, one site per mouse. All mice were bred in the Experimental Animal Center of Zhejiang University, under the environment of 23° C. to 25° C., humidity 50% to 60%, and cycle of 12 h light illumination/dark 12 h. After tumor formation, the mice were randomly divided into 3 groups with 7 mice in each group. The model group was given saline by intraperitoneal injection; the positive drug group was given tegafur at 10 mg/kg bw·d by intraperitoneal injection; the treatment group was intraperitoneally injected with the quercetin 3,3′-dimethyl ether at 50 mg/kg bw·d. According to the change of tumor volume, after the tumor formed, intraperitoneal injection was conducted every 1 d to 2 d, the tumor volume was measured, and the body weight of the mice was weighed. When there was a significant difference in tumor volume between different treatment groups, the mice were sacrificed by cervical dislocation, and the tumor tissue was carefully peeled off, weighed, and calculated. The formulas were: tumor formation rate (%)=(number of tumor-forming mice in treatment group/number of tumor-forming mice in inoculation group)×100; tumor inhibition rate (%)=(average tumor weight in control group (g)−average tumor weight in administration group (g))/average tumor weight in control group (g)×100. Serum, liver, spleen, and kidney were collected and weighed.

The structures appear in SMILES notation. Values after ≈ are worked out from the molar mass of the structure shown. Like-named read-outs stand apart in the source and are kept apart here.

Consider `COc1c(-c2ccc(O)c(O)c2)oc2cc(O)cc(O)c2c1=O` [Quercetin 3-methyl ether, quercetin 3-methyl ether], for which the IC50 in data set [1] (SGC7901, 48 h incubation) worked out at 123.94 µg/mL (≈ 392 µM); with mouse glioma cells BV-2 it was 288.00 µg/mL (≈ 911 µM); in data set [2] (48 h incubation), 215.61 µg/mL (≈ 682 µM); in data set [3] (BGC823, 48 h incubation) it was 192.55 µg/mL (≈ 609 µM); in data set [4], 157.67 µg/mL (≈ 499 µM); in [5], 117.04 µg/mL (≈ 370 µM). Moreover, the IC50 came out at 130.84 µg/mL (≈ 414 µM) in data set [6]; 154.72 µg/mL (≈ 489 µM) in data set [7]; 368.40 µg/mL (≈ 1160 µM) in data set [8]; 210.34 µg/mL (≈ 665 µM) in data set [9]; 58.45 µg/mL (≈ 185 µM) in [10]; 92.14 µg/mL (≈ 291 µM) in data set [11]. Moreover, the IC50 was 377.08 µg/mL (≈ 1190 µM) in [12], 82.34 µg/mL (≈ 260 µM) in data set [13] and 252.27 µg/mL (≈ 798 µM) in the data set on lung cancer cells A549.

Consider `O=c1c(O)c(-c2ccc(O)c(O)c2)oc2cc(O)cc(O)c12` [Quercetin, quercetin], for which the IC50 is above 400 µg/mL in [1] (Homo sapiens, SGC-7901, SGC7901, 48 h incubation, read-out: IC50); above 400 µg/mL in the data set on mouse glioma cells BV-2 (Mus musculus, Glioma cell, read-out: IC50); above 400 µg/mL in data set [2] (Homo sapiens, Caco-2, 48 h incubation, read-out: IC50); above 400 µg/mL in data set [3] (Homo sapiens, BGC-823, BGC823, 48 h incubation, read-out: IC50); 391 µg/mL (≈ 1290 µM) in data set [4] (Homo sapiens, read-out: IC50); 329 µg/mL (≈ 1090 µM) in data set [5] (read-out: IC50). In addition, the IC50 in [6] (read-out: IC50) was above 400 µg/mL; in data set [7] (Homo sapiens, read-out: IC50), above 400 µg/mL; in data set [8] (Homo sapiens, read-out: IC50), above 400 µg/mL; in [9] (Homo sapiens, read-out: IC50) it was above 400 µg/mL; in data set [10] (Homo sapiens, read-out: IC50), 155 µg/mL (≈ 513 µM); in [11] (Homo sapiens, read-out: IC50), 331 µg/mL (≈ 1090 µM). The IC50 is above 400 µg/mL in [12] (read-out: IC50); 196 µg/mL (≈ 648 µM) in data set [13] (Homo sapiens, read-out: IC50); above 400 µg/mL with lung cancer cells A549 (Homo sapiens, read-out: IC50).

Take `O=c1[nH]c(=O)n(C2CCCO2)cc1F` (stereo not shown) [tegafur, reference compound]: the “mortality of the mice” value in data set [14] is listed as “all dead”.

The record behind these values is patent US20240173289A1, “USE OF OXYMETHYL-MODIFIED DERIVATIVE OF QUERCETIN IN PREPARATION OF DRUG FOR INHIBITING TUMOR CELL PROLIFERATION” (ZHEJIANG UNIVERSITY, priority 2021, published 2024).
